Test results reported in patent US20080038809A1, “ISOLATED LECTIN POLYPEPTIDES CONSISTING OF TRUNCATED […] UDP-GalNAc:POLYPEPTIDE N- ACETYLGALACTOSAMINYLTRANSFERASES” (GLYCOZYM APS, priority 2002, published 2008).
“Also recorded” adds a separate entry of the source.

Legend:
[1] = system: MUC5AC in HT29MTX cells; test: Immuno-fluorescence staining of MUC5AC with CLH2 (FIG. 18); format: cell-based, human; details: 5 mM, continuous culture
From the text: (§1) FIG. 18 illustrates immuno-fluorescence staining of HT29MTX cells treated with inhibitors as indicated and stained with the anti-MUC5AC monoclonal antibody, CLH2.
In order to evaluate GalNAcβ-benzyl as an inhibitor of mucin glycosylation and secretion we used the cultured colon carcinoma cells of mucin secreting phenotypes: HT-29 metotrexate (MTX) cells selected from the HT-29 cell line by culture in the presence of MTX (kind gift from G. Huet, France). The HT-29 MTX cells were selected to yield a goblet cell like phenotype with constitutive production of MUC5AC. In order to ensure proper goblet cell differentiation the HT29MTX cell line were continuously grown up to 21 days in the presence of 5 mM GalNAcα-benzyl, 5 mM GalNAcβ-benzyl, 5 mM GlcNAcα-benzyl and without inhibitor using culture conditions as described in Hennebicq-Reig et al. (Permanent exposure of mucin-secreting HT-29 cells to benzyl-N-acetyl-alpha-D-galactosaminide induces abnormal O-glycosylation of mucins and inhibits constitutive and stimulated MUC5AC secretion. Biochem J. 1998; 334:283-95). At 7, 14 and 21 days of continuous culture, media was collected and cells were fixed in 3% paraformaldehyde and stained for the presence of MUC5AC and specific carbohydrate structures using immuno-histochemistry with the following monoclonal antibodies: CLH2 recognizing MUC5AC (Reis C. et al. Immunohistochemical study of MUC5AC expression in human gastric carcinomas using a novel monoclonal antibody. Int. J. Cancer. 1997; 74:112-21), 1E3 recognizing Tn (GalNAcα linked to serine or threonine), 3C9 recognizing T (Galβ1-3GalNAcα linked to serine or threonine, and 3F1 recognizing Sialyl-Tn (NeuAcα2-6GalNAcα linked to serine or threonine. […] Furthermore the viscosity of the media from cells with and without inhibitor was evaluated using viscosity micro-measurement.

[2] = target: T1, GalNAc-T2 lectin domain (Homo sapiens, UniProt Q10471); test: Inhibition of GalNAc-T2 lectin domain (T2ld) binding to GalNAc-MUC1 glycopeptide, ELISA
T1 construct: comprises amino acid residues 408-571 of GALNT2; made in house; host or cells: baculovirus (pAcGP67-A), virus made in Sf9, protein produced in High Five insect cells
T1 sequence (Q10471 408-571): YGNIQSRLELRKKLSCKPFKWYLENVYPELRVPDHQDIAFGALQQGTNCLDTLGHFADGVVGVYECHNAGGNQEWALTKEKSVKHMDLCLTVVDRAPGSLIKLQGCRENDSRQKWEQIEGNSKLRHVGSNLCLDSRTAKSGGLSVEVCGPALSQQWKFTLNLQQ
Description: (§2) Direct binding ELISA assay was developed as follows: Polystyrene microtiter plates (Maxisorb, Nunc, Denmark) were coated with peptides or enzymatically glycosylated glycopeptides in PBS overnight at 4° C. Plates were washed and blocked with 0.1% Tween20 and 0.2% BSA in PBS for 1 h at room temperature, followed by incubation with biotinylated proteins in PBS with 0.05% Tween20 for 2 h at room temperature. After four washes with PBS, plates were incubated with 1:2,000 dilution streptavidin-HRP (Sigma) in PBS for 30 min at room temperature and washed four times with PBS. Development was performed with 0.5 mg/ml o-phenylenediamine and 0.02% H2O2 at room temperature for 15 min, and reaction stopped by adding 100 μl/well of 0.5 N H2SO4. Competitive inhibition assays were done at end-point titers of GalNAc-transferase proteins with one hour preincubations with inhibitor.
In binding studies using lectins without biotinylation antibodies to the HIS-tag and the T7-tag, or in some experiments antibodies raised to GalNAc-T2 and -T4 enzymes were used to detect binding.
(§3) Inhibition experiments were used to further define the binding specificity of GalNAc-T2 and -T4 secreted soluble enzymes as well as lectin domains compared to Helix Pomatia lectin (Table IV).

[3] = target: T2, secreted soluble GalNAc-T4 (Homo sapiens, UniProt Q8N4A0); test: Inhibition of secreted soluble GalNAc-T4 (sT4) binding to GalNAc-MUC1 glycopeptide, ELISA
T2 construct: 6xHis (N); thrombin cleavage site (N); T7 antibody site (N); made in house; host or cells: baculovirus (pAcGP67A), High Five insect cells
Description: as §2, §3

[4] = system: MUC1 in CHO1d1D/MUC1F-clone2 cells; test: MUC1 expression in cell lysates, immunoprecipitation and SDS-PAGE western blot (FIGS. 12-15); format: cell-based, Chinese Hamster; details: 2 mM, 48 hours, 5E5 blot
[5] = target: GalNAc-T4 (Homo sapiens, UniProt Q8N4A0); details: mM concentrations; cited from earlier work
[6] = target: T3, secreted soluble GalNAc-T2 (Homo sapiens, UniProt Q10471); test: Inhibition of secreted soluble GalNAc-T2 (sT2) binding to GalNAc-MUC1 glycopeptide, ELISA
T3 construct: 6xHis (N); thrombin cleavage site (N); T7 antibody site (N); made in house; host or cells: baculovirus (pAcGP67A), High Five insect cells
Description: as §2, §3

[7] = target: GalNAc-T7 (Homo sapiens, UniProt Q86SF2); details: mM concentrations; cited from earlier work
[8] = system: intracellular MUC5AC, HT29MTX cells; test: Intracellular MUC5AC by immunofluorescence staining of HT29MTX cells; format: cell-based, human; details: 5 mM, CLH2 antibody
From the text: as §1
(§4) In order to evaluate GalNAcβ-benzyl as an inhibitor of mucin glycosylation and secretion we used the cultured colon carcinoma cells of mucin secreting phenotypes: HT-29 metotrexate (MTX) cells selected from the HT-29 cell line by culture in the presence of MTX (kind gift from G. Huet, France). The HT-29 MTX cells were selected to yield a goblet cell like phenotype with constitutive production of MUC5AC. In order to ensure proper goblet cell differentiation the HT29MTX cell line were continuously grown up to 21 days in the presence of 5 mM GalNAcα-benzyl, 5 mM GalNAcβ-benzyl, 5 mM GlcNAcα-benzyl and without inhibitor using culture conditions as described in Hennebicq-Reig et al. (Permanent exposure of mucin-secreting HT-29 cells to benzyl-N-acetyl-alpha-D-galactosaminide induces abnormal O-glycosylation of mucins and inhibits constitutive and stimulated MUC5AC secretion. Biochem J. 1998; 334:283-95). […] Furthermore the viscosity of the media from cells with and without inhibitor was evaluated using viscosity micro-measurement.

[9] = system: secreted MUC1, wild type CHO/MUC1sol-cloneC4; test: MUC1 secretion by western blot of medium; format: cell-based, Chinese hamster (CHO cells); human MUC1; details: 1-2 mM
From the text: Because GalNAcα-benzyl exerts separate effects on O-glycan processing and mucin expression, the use of the novel selective inhibitor of mucin expression, GalNAcβ-benzyl, allow analysis of mucin expression and secretion in different cell line models. Examples of human cell lines (available from ATCC, USA) expressing and secreting mucins are without limitations LS174T, HT29, Colo205, CALU, MCF7, T47D, NCI-H292, and A549. Most human adenocarcinoma cell lines express and secret mucins and analysis with antibodies to detect protein expression or probes to detect mRNA can reveal the types and quantities of mucins. […] This and other cell lines can be used to treat with 2 mM GalNAcβ-benzyl. In this Example we used wild type CHO/MUC1sol-cloneC4 and western blot analysis of medium of cells treated with 1-2 mM GalNAcα-benzyl, GalNAcβ-benzyl, or the control GlcNAcα-benzyl. […] The inhibitory effect on mucin secretion can be quantified by a number of assays known to the skilled in the art including western blot, ELISA, gelfiltration, immunocapture, and other assays.

[10] = system: O-glycan processing; details: cited from earlier work
[11] = system: HT29 MTX cells; details: cited from earlier work
[12] = system: HT-29 MTX cells; test: Viscosity of media from HT-29 MTX cells; format: cell-based, human; details: 5 mM; data not shown
From the text: as §4

[13] = target: β3Gal-T4 (Homo sapiens, UniProt O96024); details: cited from earlier work
[14] = target: β3Gal-T5 (Homo sapiens, UniProt Q9Y2C3); details: cited from earlier work
Chain of β3Gal-T5 (Q9Y2C3 whole entry, species assumed): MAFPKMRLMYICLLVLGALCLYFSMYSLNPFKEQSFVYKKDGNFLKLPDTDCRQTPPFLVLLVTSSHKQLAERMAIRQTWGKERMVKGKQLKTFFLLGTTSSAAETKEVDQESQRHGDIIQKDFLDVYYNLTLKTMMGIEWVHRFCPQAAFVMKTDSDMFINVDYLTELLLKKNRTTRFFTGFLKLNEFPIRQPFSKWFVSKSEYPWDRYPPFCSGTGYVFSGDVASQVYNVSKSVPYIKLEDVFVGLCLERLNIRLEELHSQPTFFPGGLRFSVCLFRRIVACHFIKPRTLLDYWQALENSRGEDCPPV

T3 sequence (Q10471 52-571 limits assumed): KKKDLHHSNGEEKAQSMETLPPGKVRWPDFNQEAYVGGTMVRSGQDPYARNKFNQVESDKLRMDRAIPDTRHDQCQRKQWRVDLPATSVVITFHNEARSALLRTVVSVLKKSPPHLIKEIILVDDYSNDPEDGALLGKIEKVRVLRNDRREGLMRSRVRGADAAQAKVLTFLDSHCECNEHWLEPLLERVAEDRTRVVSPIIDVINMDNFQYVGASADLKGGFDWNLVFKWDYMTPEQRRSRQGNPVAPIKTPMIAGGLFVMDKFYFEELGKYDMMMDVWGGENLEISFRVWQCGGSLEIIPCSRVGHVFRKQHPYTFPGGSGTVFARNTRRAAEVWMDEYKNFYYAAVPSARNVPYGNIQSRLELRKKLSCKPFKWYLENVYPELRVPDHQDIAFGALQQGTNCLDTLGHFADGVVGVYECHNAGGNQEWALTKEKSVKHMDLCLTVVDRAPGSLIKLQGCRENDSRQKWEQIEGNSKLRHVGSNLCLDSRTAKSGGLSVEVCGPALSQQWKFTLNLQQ
Chain of β3Gal-T4 (O96024 whole entry): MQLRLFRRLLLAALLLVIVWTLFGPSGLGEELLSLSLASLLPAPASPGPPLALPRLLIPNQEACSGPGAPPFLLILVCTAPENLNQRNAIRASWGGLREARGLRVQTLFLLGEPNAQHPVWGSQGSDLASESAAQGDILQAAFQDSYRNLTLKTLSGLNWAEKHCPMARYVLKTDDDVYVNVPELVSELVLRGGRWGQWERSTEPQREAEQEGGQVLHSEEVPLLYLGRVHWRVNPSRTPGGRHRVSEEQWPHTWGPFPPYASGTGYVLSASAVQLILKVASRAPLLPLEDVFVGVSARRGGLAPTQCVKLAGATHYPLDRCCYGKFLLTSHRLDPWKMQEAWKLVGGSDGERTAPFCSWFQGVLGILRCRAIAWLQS
Chain of GalNAc-T7 (Q86SF2 whole entry): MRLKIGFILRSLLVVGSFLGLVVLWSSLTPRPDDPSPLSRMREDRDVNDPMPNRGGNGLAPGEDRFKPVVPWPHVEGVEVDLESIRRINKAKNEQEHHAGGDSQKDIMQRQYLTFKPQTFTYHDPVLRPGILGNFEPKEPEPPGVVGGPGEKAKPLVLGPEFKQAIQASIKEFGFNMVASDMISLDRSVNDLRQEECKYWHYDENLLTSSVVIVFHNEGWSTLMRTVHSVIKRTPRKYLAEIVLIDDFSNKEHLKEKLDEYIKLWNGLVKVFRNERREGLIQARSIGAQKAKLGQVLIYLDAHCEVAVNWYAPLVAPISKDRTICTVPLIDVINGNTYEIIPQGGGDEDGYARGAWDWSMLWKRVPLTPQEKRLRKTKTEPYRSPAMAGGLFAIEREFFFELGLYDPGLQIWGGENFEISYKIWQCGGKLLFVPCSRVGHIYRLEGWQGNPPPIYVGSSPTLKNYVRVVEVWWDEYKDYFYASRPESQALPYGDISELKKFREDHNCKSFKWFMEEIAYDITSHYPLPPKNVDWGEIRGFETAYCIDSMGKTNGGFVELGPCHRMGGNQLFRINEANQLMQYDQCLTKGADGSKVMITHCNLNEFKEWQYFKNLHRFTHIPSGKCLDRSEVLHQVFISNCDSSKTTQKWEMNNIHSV
Chain of GalNAc-T4 (Q8N4A0 whole entry): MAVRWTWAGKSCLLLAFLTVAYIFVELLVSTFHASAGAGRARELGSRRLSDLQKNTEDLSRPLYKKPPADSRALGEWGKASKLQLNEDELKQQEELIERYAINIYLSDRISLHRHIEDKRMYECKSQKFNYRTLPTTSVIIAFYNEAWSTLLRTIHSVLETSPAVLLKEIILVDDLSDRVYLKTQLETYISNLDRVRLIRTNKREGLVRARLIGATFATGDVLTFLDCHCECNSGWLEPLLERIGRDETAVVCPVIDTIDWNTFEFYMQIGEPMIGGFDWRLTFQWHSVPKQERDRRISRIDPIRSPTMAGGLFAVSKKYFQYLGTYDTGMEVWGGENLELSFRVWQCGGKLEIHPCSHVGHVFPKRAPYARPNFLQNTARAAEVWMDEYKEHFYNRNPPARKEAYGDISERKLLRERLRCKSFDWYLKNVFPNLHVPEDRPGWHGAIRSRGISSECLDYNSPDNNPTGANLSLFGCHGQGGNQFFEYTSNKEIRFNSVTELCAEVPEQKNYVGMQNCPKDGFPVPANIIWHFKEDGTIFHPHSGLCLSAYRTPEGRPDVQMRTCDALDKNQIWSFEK
T2 sequence (Q8N4A0 36-578 limits assumed): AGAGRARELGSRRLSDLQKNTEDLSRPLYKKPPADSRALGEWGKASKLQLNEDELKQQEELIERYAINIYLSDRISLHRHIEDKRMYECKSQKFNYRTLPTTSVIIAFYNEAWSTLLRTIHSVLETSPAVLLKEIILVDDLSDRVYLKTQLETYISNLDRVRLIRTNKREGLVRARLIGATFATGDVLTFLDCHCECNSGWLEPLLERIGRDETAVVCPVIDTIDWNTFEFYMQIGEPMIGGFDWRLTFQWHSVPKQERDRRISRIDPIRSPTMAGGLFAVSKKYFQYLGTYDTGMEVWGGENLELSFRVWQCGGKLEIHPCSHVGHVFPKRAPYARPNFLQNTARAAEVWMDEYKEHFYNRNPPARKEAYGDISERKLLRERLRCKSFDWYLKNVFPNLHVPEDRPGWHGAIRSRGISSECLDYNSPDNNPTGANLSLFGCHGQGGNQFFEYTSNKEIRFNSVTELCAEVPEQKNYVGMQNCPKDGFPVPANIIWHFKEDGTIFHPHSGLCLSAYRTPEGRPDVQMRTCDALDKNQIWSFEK

storage phenotype [1]	IC50 [2] [mM]	IC50 [3] [mM]	IC50 [6] [mM]	Structure (SMILES)	intracellular staining of MUC5AC [1]	MUC1 expression [4]	inhibition of lectin mediated GalNAc-glycopeptide substrate specificity of GalNAc-T4 [5]	inhibition of lectin mediated GalNAc-glycopeptide substrate specificity of GalNAc-T7 [7]	intracellular staining of MUC5AC / storage phenotype [8]	inhibition of secreted MUC1 [9]	inhibition of O-glycan processing / sialylation [10]	inhibition of mucin secretion [11]	viscosity of media [12]	activity of β3Gal-T4 with the compound as acceptor [13]	activity of β3Gal-T5 with the compound as acceptor [14]
induced a storage phenotype	20	1	15	CC(=O)N[C@H]1[C@@H](OCc2ccccc2)O[C@H](CO)[C@H](O)[C@@H]1O [BzlαGalNAc, benzyl-N-acetyl-alpha-D-galactosaminide]	increased intracellular staining	significant reduction	can inhibit	can inhibit	–	–	–	–	–	–	–
–	–	–	–	CC(=O)N[C@H]1[C@@H](OCc2ccccc2)O[C@H](CO)[C@H](O)[C@@H]1O [GalNAcα-benzyl, benzyl-N-acetyl-alpha-D-galactosaminide]	–	–	–	–	storage phenotype with increased intracellular staining of MUC5AC	inhibition of secreted MUC1	inhibit sialylation	Inhibition of mucin secretion	–	–	–
did not lead to any storage disease	–	–	–	CC(=O)N[C@H]1[C@H](OCc2ccccc2)O[C@H](CO)[C@H](O)[C@@H]1O [GalNAcβ-benzyl]	clearly diminished intracellular staining	–	–	–	did not lead to a storage disease phenotype; also recorded: clearly diminished intracellular staining of MUC5AC	inhibition of secreted MUC1	–	–	less viscous	no or very poor activity	no or very poor activity
